Reference: patent US10730851B2, “Polymorph of triaryldimethylpiperazine dihydrochloride and preparation method and application thereof” (priority 2016, dated 2020)
≈ marks a conversion by molar mass, not a printed value.

Columns and labels:
[1] = Dynamic solubility test in water, SGF, FeSSIF, FaSSIF; assay type: physicochemical
Experimental: The dynamic solubility of a free base, polymorph forms B, P, F, J and O in water or a biological medium such as Stimulated Gastric Fluid (SGF), Fed State Simulated Intestinal Fluid (FeSSIF) or Fasted State Simulated Intestinal Fluid (FaSSIF) is determined.
0.2 g sodium chloride and 0.1 g Triton X-100 is weighed and placed into a 100 mL volumetric flask. Purified water is added to dissolve. A stir is performed until the solid is completely dissolved. About 135 μL concentrated hydrochloric acid solution (37%, […]) is added, then the pH is adjusted to 1.8 with […] hydrochloric acid or 1 mmoL/L sodium hydroxide. Finally, the volume is fixed with purified water to obtain Stimulated Gastric Fluid (SGF) for later use.
Each of 0.41 mL glacial acetic acid, 0.20 g sodium hydroxide and 0.59 g sodium chloride is weighed and placed to a 50 mL volumetric flask. About 48 mL purified water is added to dissolve, the pH is adjusted to 5.0 with 1 mmoL/L hydrochloric acid or 1 mmoL/L sodium hydroxide, and the volume is fixed with purified water. Then 0.56 g of Simulated Intestinal Fluid powder (SIF powder for short, which is composed of […] with a molar ratio of 4:1) is added, stirred and ultrasonically dissolved to obtain Fed State Simulated Intestinal Fluid (FeSSIF) for later use.
Each of 0.17 g of anhydrous sodium dihydrogen phosphate (NaH2PO4), 0.021 g of sodium hydroxide and 0.31 g of sodium chloride is weighed and placed into a 50 mL volumetric flask. About 48 mL of purified water is added to dissolve, the pH is adjusted to 6.5 with 1 mmoL/L hydrochloric acid or 1 mmoL/L sodium hydroxide, and the volume is fixed with purified water. 0.11 g of SIF powder is added, stirred and ultrasonically dissolved to obtain Fasted State Simulated Intestinal Fluid (FaSSIF) for later use.
Each 30 mg of the free base, and polymorph forms B, P, F, J and O are weighed. 3 mL of purified water, Stimulated Gastric Fluid (SGF), Fed State Simulated Intestinal Fluid (FeSSIF) or Fasted State Simulated Intestinal Fluid (FaSSIF)) is added and oscillated at room temperature. 0.6 mL of suspension is taken each time at a set time point, filtered and separated with a 0.45 μm nylon filter membrane, then XRPD characterization is performed on the solid sample, and the concentration in the clear solution is measured by HPLC.

[2] = Relative bioavailability test; assay type: in vivo, SPF-grade SD rats; conditions: rats, 20 mg/kg·bw by gavage in 0.5% CMC-Na, x ± s, n = 6, 20 mg/kg
Experimental: HPLC-MS/MS method is used to detect the blood drug concentration of target drugs in SPF-grade SD rats, and the relative bioavailability of 0.5% CMC-Na suspension of a free base and 0.5% CMC-Na solution of a polymorph form P are calculated and compared.
60.46 mg of a free base is accurately weighed and placed into a 15 mL centrifuge tube, 12 mL of 0.5% CMC-Na solution is measured and added into the centrifuge tube with a measuring cylinder, vortexed for 5 min, and ultrasonically dispersed for 15 min to obtain 0.5% CMC-Na suspension of free base with a concentration of 5.04 mg/ml, which is currently formulated when using and vibrated at any time during administration.
60.05 mg of a polymorph form P is accurately weighed and placed into a 15 mL centrifuge tube, 12 mL of 0.5% CMC-Na solution is measured and added into the centrifuge tube with a measuring cylinder, vortexed for 5 min, and ultrasonically dispersed for 15 min to obtain 0.5% CMC-Na solution of 5.00 mg/mL polymorph form P, which is currently formulated when using.
Twelve SPF-grade SD rats are selected and randomly divided into a free base group and a polymorph form P group with 6 rats in each group (both male and female). Animals are fasted for 12 h but have free access to water. Weighing is performed and, the administration volume of each rat is calculated according to the animal weight, so that the administration dose is 20 mg/kg·bw. During administration, the drugs are each administrated by gavage, and 0.5% CMC-Na suspension/solution of the above two target drugs are extracted by 2 mL syringe respectively. The gavage needle is inserted into the stomach from the corner of the rat's mouth and pushed the solution thereto.
Blood is collected from the fundus venous plexus of rats at 0.2 mL before (0 h) and 0.5, 1, 2, 4, 6, 8, 12 and 24 h after administration, anticoagulated with 300 IU/mL heparin (1:20) and centrifuged (3000 r/min) for 15 min. After plasma separation, the blood drug concentration of the target drug is determined by HPLC-MS/MS.
Referring to the above-mentioned bioavailability test of the polymorph form P, the bioavailability tests of polymorph forms F, O, B and J are conducted respectively. Different from the bioavailability test of the polymorph form P, rats are given 0.5% CMC-Na solution of the polymorph form F, O, B or J by gavage respectively. Other operations are the same as the above bioavailability test.

SPF-grade SD rats = test: Forced swimming test; assay type: in vivo; conditions: 40 mg/kg Ip, three times (23.5 h, 5 h, 1 h before test), x ± SEM
Experimental: Forced swimming test is used to test the antidepressant effects of polymorph forms P, F, O, B and J.
the swimming test equipment is a transparent glass round cylinder with a height of 46 cm and an inner diameter of 20 cm, the test water temperature is 23° C.˜25° C., the test water depth is 30 cm, and each cylinder is used only once.
(§1) 300 mg of a polymorph form P is weighed with an electronic balance, and the polymorph form P is dissolved with 0.9% normal saline, and finally the volume is fixed to 100 mL with 0.9% normal saline, at this time, the concentration of dihydrochloride in the experimental reagent is 3 mg/mL for later use.
as §1, with “600” for “300”, “6” for “3”
400 mg of desipramine (DMI) is weighed with an electronic balance, DMI is dissolved with 0.9% normal saline, and then the volume is fixed to 100 mL with 0.9% normal saline for later use.
Forty SPF-grade SD rats are prepared and randomly divided into 4 groups, namely vehicle control group, positive control group, experimental group 1 and experimental group 2, with 10 rats in each group. The day before the test, the rats were placed in water for 15 min to pre-swim for 15 min in advance to adapt to the swimming test environment, then taken out and dried, placed in the cage under an infrared lamp for 15 min and then placed in the original cage. After 24 h, a formal swimming test is conducted, that is, the rats are put into water again after 24 h, and the rats are continuously observed for 5 min. The swimming process are needed to be photographed. The drug is administered during two swimming sessions.
The positive control group containing DMI is administered three times, at 23.5 h, 5 h and 1 h before the formal swimming test respectively. Vehicle control group, experimental group 1 and experimental group 2 are each administered only once and subcutaneously within 1 h.
The behaviors of the rats are scored by the scorer every 5 seconds after recording the experiment.
1) Static—when the rat floats on the water surface without struggling and moves only to keep its head above the water surface, the rat is evaluated as static;
2) Swimming—if the rats have obvious swimming behaviors, not only to keep their heads above the water surface, or to travel around in a round cylinder, they are evaluated as swimming;
3) Wall climbing—the rats' front paws have obvious behavior of entering and leaving the water surface, usually, rats are evaluated as wall climbing in front of the round cylinder wall.
All behavioral are scored by a single person. To avoid bias of observation, the scorer only observed and scored without knowing the administration situations. Then multiple test fragments are randomly selected, and the scorer will score the second round to determine the accuracy of observation. The test video is scored again by the second scorer to determine the accuracy between scorers. The second scorer are also required to observe without knowing the drug administration. Finally, in order to determine the effectiveness of the method, the first scorer scored again and recorded the duration of various behaviors with a stopwatch.
SPSSwin11.0 software is used for variance analysis. One-way variance analysis is used for homogeneity of variance, and Dunnett test is used for heterogeneity of variance.

Compound: CC1CCN(C(=O)c2ccc([C@H](c3cccc(O)c3)N3C[C@@H](C)N(Cc4cccc(F)c4)C[C@@H]3C)cc2)CC1 [free base]
- pH in clear solution ([1]; FaSSIF, Time 1): 6.5
- Crystal form of insoluble solid sample ([1]; FaSSIF, Time 1, XRPD): invariability
- Solubility ([1]; FaSSIF, Time 1, room temperature): 13 µg/mL (≈ 24.5 µM)
- pH in clear solution ([1]; FaSSIF, Time 2): 6.5
- Crystal form of insoluble solid sample ([1]; FaSSIF, Time 2, XRPD): invariability
- Solubility ([1]; FaSSIF, Time 2, room temperature): 17 µg/mL (≈ 32.1 µM)
- pH in clear solution ([1]; FaSSIF, Time 4): 6.5
- Crystal form of insoluble solid sample ([1]; FaSSIF, Time 4, XRPD): invariability
- Solubility ([1]; FaSSIF, Time 4, room temperature): 16 µg/mL (≈ 30.2 µM)
- pH in clear solution ([1]; FaSSIF, Time 24): 6.5
- Crystal form of insoluble solid sample ([1]; FaSSIF, Time 24, XRPD): invariability
- Solubility ([1]; FaSSIF, Time 24, room temperature): 27 µg/mL (≈ 51 µM)
- pH in clear solution ([1]; FeSSIF, Time 1): 4.9
- Crystal form of insoluble solid sample ([1]; FeSSIF, Time 1, XRPD): invariability
- Solubility ([1]; FeSSIF, Time 1, room temperature): 59 µg/mL (≈ 111 µM)
- pH in clear solution ([1]; FeSSIF, Time 2): 5.0
- Crystal form of insoluble solid sample ([1]; FeSSIF, Time 2, XRPD): invariability
- Solubility ([1]; FeSSIF, Time 2, room temperature): 63 µg/mL (≈ 119 µM)
- pH in clear solution ([1]; FeSSIF, Time 4): 5.0
- Crystal form of insoluble solid sample ([1]; FeSSIF, Time 4, XRPD): invariability
- Solubility ([1]; FeSSIF, Time 4, room temperature): 62 µg/mL (≈ 117 µM)
- pH in clear solution ([1]; FeSSIF, Time 24): 5.0
- Crystal form of insoluble solid sample ([1]; FeSSIF, Time 24, XRPD): invariability
- Solubility ([1]; FeSSIF, Time 24, room temperature): 81 µg/mL (≈ 153 µM)
- pH in clear solution ([1]; SGF, Time 1): 1.9
- Crystal form of insoluble solid sample ([1]; SGF, Time 1, XRPD): invariability
- Solubility ([1]; SGF, Time 1, room temperature): 2100 µg/mL (≈ 3960 µM)
- pH in clear solution ([1]; SGF, Time 2): 1.9
- Crystal form of insoluble solid sample ([1]; SGF, Time 2, XRPD): invariability
- Solubility ([1]; SGF, Time 2, room temperature): 2700 µg/mL (≈ 5100 µM)
- pH in clear solution ([1]; SGF, Time 4): 1.9
- Crystal form of insoluble solid sample ([1]; SGF, Time 4, XRPD): invariability
- Solubility ([1]; SGF, Time 4, room temperature): 2700 µg/mL (≈ 5100 µM)
- pH in clear solution ([1]; SGF, Time 24): 2.1
- Crystal form of insoluble solid sample ([1]; SGF, Time 24, XRPD): invariability
- Solubility ([1]; SGF, Time 24, room temperature): 3200 µg/mL (≈ 6040 µM)
- pH in clear solution ([1]; Water, Time 1): 5.6
- pH in clear solution ([1]; Water, Time 2): 5.7
- Crystal form of insoluble solid sample ([1]; Water, Time 2, XRPD): invariability
- Solubility ([1]; Water, Time 2, room temperature): <LOQ
- pH in clear solution ([1]; Water, Time 4): 5.6
- Crystal form of insoluble solid sample ([1]; Water, Time 4, XRPD): invariability
- Solubility ([1]; Water, Time 4, room temperature): <LOQ
- pH in clear solution ([1]; Water, Time 24): 5.8
- Crystal form of insoluble solid sample ([1]; Water, Time 24, XRPD): invariability
- Solubility ([1]; Water, Time 24, room temperature): <LOQ
- AUC(0-24h) [2]: 288.6 ng·h/mL
- AUC(0-24h) ([2]; listed as Free base): 288.6 ± 64.7 ng·h/mL
- Cmax ([2]; listed as Free base): 51.68 ± 6.56 ng/mL
- Tmax ([2]; listed as Free base): 3.6 ± 0.9 h
- t1/2z ([2]; listed as Free base): 2.4 ± 0.8 h

Compound: CNCCCN1c2ccccc2CCc2ccccc21 [desipramine, reference compound]
- Behavior duration, Static (SPF-grade SD rats): 37.5 ± 6.5 s
- Behavior duration, Swimming (SPF-grade SD rats): 143.0 ± 15.5 s
- Behavior duration, Wall climbing (SPF-grade SD rats): 119.5 ± 12.0 s
- Number of behaviors, Swimming (SPF-grade SD rats): 28.6 ± 3.1 times
- Number of behaviors, Wall climbing (SPF-grade SD rats): 23.9 ± 2.4 times
- Number of behaviors, Static (SPF-grade SD rats; 5 min observation): 7.5 ± 1.3 times
